Key:
Assay type in all cases: in vivo, human
[1] = test system: Cushing's syndrome patients; test: 24-hr Urinary Free Cortisol, Group 1, 12 week ascending-dose relacorilant study; conditions: for change in cortisol levels: Cushing's syndrome patients, Groups 1 and 2 (Tables 1 and 2); for Mean 24-hr UFC: Group 1, baseline 215.6
Excerpt: (§1) Cortisol levels can be measured in a biological sample, such as saliva, urine, whole blood, serum, plasma, or any other biological fluid taken from a patient suffering from Cushing's syndrome. Such samples are typically analyzed in vitro. In some cases, the same sample is used to measure cortisol level and ACTH level. In other cases, different samples are used to measure cortisol and ACTH levels. For example, cortisol levels can be measured in saliva or urine, and ACTH levels can be measured in plasma. In yet other cases, different samples of the same type are used to measure the levels. Methods for measuring cortisol levels are known to those in the art. Useful assays include immunoassays, e.g., competitive immunoassay, radioimmunoassay, immunofluorometric enzyme assay, and ELISA, competitive protein-binding assay and mass spectrometry, e.g., high-performance liquid chromatography/triple quadrupole-mass spectrometry (LC-MS/MS). Commercial kits for measuring cortisol in sample are available from, e.g., Beckman-Coulter, Seimens, Roche Diagnostics, and the like. Non-limiting examples of an immunoassay include an ADVIA Centaur® Cortisol assay (Siemens Healthcare Global), […] i2000SR cortisol (Abbott), Immulite® 2000 Cortisol assay (Siemans Healthcare Global; #L2KCO2), Vitros® ECi Cortisol assay (Ortho Clinical Diagnostics; #107 4053), and Elecsys® Cortisol Immunoassay (Roche Molecular Diagnostics; #11875116160).
Cortisol levels were measured in Cushing's syndrome patients who were administered doses of the heteroaryl-ketone fused azadecalin compound relacorilant. Urinary Free Cortisol (UFC) was measured in these patients over the course of a 12 week study in which ascending doses of relacorilant were administered.

[2] = test system: Cushing's syndrome patients; test: 24-hr Urinary Free Cortisol, Group 2, 16 week ascending-dose relacorilant study
Excerpt: as §1
Cortisol levels were measured in a second group of Cushing's syndrome patients who were administered doses of relacorilant. Urinary Free Cortisol (UFC) was measured in these patients over the course of a 16 week study in which ascending doses of relacorilant were administered.

[3] = test system: Cushing's syndrome patients; test: Mean ACTH levels in relacorilant Groups 1 and 2
Excerpt: Cortisol levels obtained for individual patients and the UFC tabular summary (Tables 1 and 2 above) show no significant changes from baseline in UFC.

[4] = test system: Cushing's syndrome patients; test: Drug-induced hypokalemia in Phase 2 study of relacorilant
[5] = test system: ectopic tumor (somatostatin receptor expression); test: Indium octreoscan imaging of ectopic tumor before and after relacorilant treatment; conditions: one patient; oral once daily 250, 300, 350, 400 mg/day, four weeks each; 111Indium octreotide
Experimental: In a further attempt to image, and to localize, the tumor in the patient, an indium octreoscan image (patient was administered Octreotide radiolabeled with ^111Indium prior to imaging) was obtained, in which a dot was seen which enabled localization of the tumor to the right lung/mediastinum region of the patient.
Relacorilant was then orally administered to the patient once per day for four months. The patient was administered 250 milligrams (mg) per day of relacorilant for four weeks, followed by 300 mg/day relacorilant for the next four weeks, followed by 350 mg/day relacorilant for a further four weeks, and then was administered 400 mg relacorilant for another four weeks.
The indium octreoscan image of FIG. 2 provides a much improved and enhanced image of the tumor in the patient as compared to the image of FIG. 1. It is believed that the improvement in the indium octreoscan image of FIG. 2 as compared to the image shown in FIG. 1 was due to increased somatostatin receptor expression, e.g., due to increased sst2 receptor expression, as compared to that expression prior to the relacorilant treatment.

drug-induced hypokalemia [4]: lack of drug-induced hypokalemia
Compound: Cn1cc(S(=O)(=O)N2CCC3=Cc4c(cnn4-c4ccc(F)cc4)C[C@]3(C(=O)c3cc(C(F)(F)F)ccn3)C2)cn1 [relacorilant, (R)-(1-(4-fluorophenyl)-6-((1-methyl-1H-pyrazol-4-yl)sulfonyl)-4,4a,5,6,7,8-hexahydro-1H-pyrazolo[3,4-g]isoquinolin-4a-yl)(4-(trifluoromethyl)pyridin-2-yl)methanone]
change in cortisol levels [1]: does not lead to significant increases in cortisol levels | change in cortisol levels ([1]; listed as Relacorilant): no increases in cortisol concentrations | Mean 24-hr UFC ([1]; relacorilant 100 mg, Wk 2): 151.8 µg/day | Mean 24-hr UFC ([1]; relacorilant 100 mg, Wk 4): 157.0 µg/day | Mean 24-hr UFC ([1]; relacorilant 150 mg, Wk 6): 145.3 µg/day | Mean 24-hr UFC ([1]; relacorilant 150 mg, Wk 8): 134.9 µg/day | Mean 24-hr UFC ([1]; relacorilant 200 mg, Wk 10): 180.9 µg/day | Mean 24-hr UFC ([1]; relacorilant 200 mg, Wk 12): 211.6 µg/day | Mean 24-hr UFC ([2]; relacorilant 250 mg, Wk 2, baseline 228.1): 252.1 µg/day | Mean 24-hr UFC ([2]; relacorilant 250 mg, Wk 4, baseline 228.1): 218.2 µg/day | Mean 24-hr UFC ([2]; relacorilant 300 mg, Wk 6, baseline 228.1): 257.4 µg/day | Mean 24-hr UFC ([2]; relacorilant 300 mg, Wk 8, baseline 228.1): 149.1 µg/day | Mean 24-hr UFC ([2]; relacorilant 350 mg, Wk 10, baseline 228.1): 185.4 µg/day | Mean 24-hr UFC ([2]; relacorilant 350 mg, Wk 12, baseline 228.1): 249.0 µg/day | Mean 24-hr UFC ([2]; relacorilant 400 mg, Wk 14, baseline 228.1): 194.1 µg/day | Mean 24-hr UFC ([2]; relacorilant 400 mg, Wk 16, baseline 228.1): 203.1 µg/day | mean ACTH ([3]; Group 1, Week 12, SD 10.34, Baseline 11.02±8.04): 14.68 pmol/L | mean ACTH ([3]; Group 2, Week 16 or last-observed, SD 10.72, Baseline 12.79±8.36): 15.56 pmol/L | change in ACTH ([3]; baseline to end of treatment): only modest increases in ACTH | effect on indium octreoscan images of the ectopic tumor [5]: enhanced

— patent US12290551B2, “Methods for imaging and treatment of somatostatin-receptor positive tumors” (Corcept Therapeutics Incorporated, priority 2018, dated 2025)
